Experiments:
[1] = system: anti-IgM-induced expression of CD69 on CD19 positive cells (B cells) in human PBMCs; assay: Assay C: PBMC IC50 assay (anti-IgM-induced CD69 expression); type: cell-based; conditions: anti-IgM stimulation
Experimental: Btk is critical for mediating the signalling of B cell antigen receptor (BCR) after anti-IgM stimulation. Based on this principle, a functional cell-based assay was established to determine the potency of compounds at inhibiting anti-IgM-induced expression of CD69, a downstream BCR signaling event, in freshly isolated human peripheral blood mononuclear cells (PBMCs). In the assay, a 90 μl PBMC suspension containing 2.5×10^5 cells was pre-treated with 10 μl of test compound at various concentrations for an hour, and then incubated overnight (approximately 16-18 hours) with 5 μl 420 μg/ml affiniPure F(ab′)2 fragment goat anti-human IgM Fc fragment per well (Dianova, Cat. No.: 109-006-129). After the incubation, the cells were washed and immunostained with an APC-labeled mouse anti-human CD69 (BD Biosciences; clone: FN50), a PerCP-Cy5.5 labelled mouse anti-human CD19 (BD Biosciences; clone: SJ25C1) and a FITC-labelled mouse anti-human CD3 (BD Biosciences; clone: HIT3a), and fixed for flow cytometric analysis of CD69 expression on CD19 positive cells (B cells). The percentage of CD69 expressing CD19 positive cells was plotted against the concentrations of test compounds to obtain a concentration response curve, and calculate an IC50 value as a measure of the potency of test compounds in the assay.

[2] = target: BTK C481S (His-TEV-hsBTK(328-659)(C481S)) (Homo sapiens (Human), UniProt Q06187, C481S); assay: Assay B: microfluidic off-chip mobility shift assay against BTK C481S enzyme; type: biochemical; conditions: BTK C481S mutant
Sequence of BTK C481S (His-TEV-hsBTK(328-659)(C481S)) (Q06187 328-659 C481S): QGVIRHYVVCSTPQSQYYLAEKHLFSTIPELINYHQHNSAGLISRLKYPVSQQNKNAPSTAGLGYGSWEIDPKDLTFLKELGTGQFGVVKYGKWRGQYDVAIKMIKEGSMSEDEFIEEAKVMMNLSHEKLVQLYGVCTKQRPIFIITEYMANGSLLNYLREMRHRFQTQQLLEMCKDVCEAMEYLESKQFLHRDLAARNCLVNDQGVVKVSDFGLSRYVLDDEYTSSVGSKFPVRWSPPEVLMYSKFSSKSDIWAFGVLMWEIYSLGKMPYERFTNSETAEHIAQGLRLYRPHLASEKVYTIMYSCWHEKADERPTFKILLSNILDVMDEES
Outline: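 Substrate-to-phosphopeptide conversion quantified by microfluidic mobility shift with laser-induced fluorescence; IC50 and efficacy from log[inhibitor] vs. % activity.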

full-length human BTK = full-length human BTK (Homo sapiens (Human), UniProt Q06187); assay: Assay A: microfluidic off-chip mobility shift assay against BTK enzyme; type: biochemical
Sequence of full-length human BTK (Q06187 whole entry): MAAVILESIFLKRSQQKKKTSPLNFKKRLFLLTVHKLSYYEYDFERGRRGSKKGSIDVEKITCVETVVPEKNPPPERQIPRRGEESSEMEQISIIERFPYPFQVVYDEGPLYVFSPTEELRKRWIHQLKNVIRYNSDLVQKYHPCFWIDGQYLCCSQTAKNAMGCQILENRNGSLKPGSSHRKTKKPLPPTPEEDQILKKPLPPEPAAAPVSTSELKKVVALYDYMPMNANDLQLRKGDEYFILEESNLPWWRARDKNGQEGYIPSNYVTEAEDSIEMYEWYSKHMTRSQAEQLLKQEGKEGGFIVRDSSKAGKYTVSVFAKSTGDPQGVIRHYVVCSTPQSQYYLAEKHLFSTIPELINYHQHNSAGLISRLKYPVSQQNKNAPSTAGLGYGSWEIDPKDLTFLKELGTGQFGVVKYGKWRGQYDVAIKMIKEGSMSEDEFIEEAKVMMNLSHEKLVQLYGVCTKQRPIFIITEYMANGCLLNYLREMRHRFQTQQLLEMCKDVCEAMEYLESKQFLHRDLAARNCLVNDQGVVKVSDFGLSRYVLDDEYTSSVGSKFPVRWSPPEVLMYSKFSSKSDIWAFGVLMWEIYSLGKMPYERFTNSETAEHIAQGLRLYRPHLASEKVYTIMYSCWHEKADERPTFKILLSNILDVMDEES

| SMILES | IC50 [2] [nM] | IC50 (full-length human BTK) [nM] | IC50 [1] [nM] |
| --- | --- | --- | --- |
| O=C(NCc1ccc(-c2ccnc3[nH]c(-c4cnn(CCN5CCOCC5)c4)nc23)cc1F)c1nnc(C2CCOCC2)o1 [Example 122, 5-(Tetrahydro-pyran-4-yl)-[1,3,4]oxadiazole-2-carboxylic acid 2-fluoro-4-{2-[1-(2-morpholin-4-yl-ethyl)-1H-pyrazol-4-yl]-3H-imidazo[4,5-b]pyridin-7-yl}-benzylamide] | 100 to 1000 | 100 to 1000 | > 5000 |
| Cn1cc(-c2nc3nccc(-c4cccc(N5CCOc6cc(C7CC7)cc(F)c6C5=O)c4CO)c3[nH]2)cn1 [Example 42, 8-Cyclopropyl-6-fluoro-4-[2-(hydroxymethyl)-3-[2-(1-methyl-1H-pyrazol-4-yl)-1H-imidazo[4,5-b]pyridine-7-yl]phenyl]-2,3,4,5-tetrahydro-1,4-benzoxazepin-5-one] | < 100 | < 100 | 100 to 1000 |
| CC(C)(C)c1ccc(C(=O)NCc2ccc(-c3ccnc4[nH]c(-c5ccc(C6=CCNCC6)cc5)nc34)cc2F)cc1 [Example 66, 4-tert-Butyl-N-[(2-fluoro-4-[2-[4-(1,2,3,6-tetrahydropyridin-4-yl)phenyl]-3H-imidazo[4,5-b]pyridin-7-yl]phenyl)methyl]benzamide] | < 100 | < 100 | 100 to 1000 |
| COc1ccnc(-c2nc3c(-c4ccc(CNC(=O)c5noc(C(C)(C)C)n5)c(F)c4)ccnc3[nH]2)c1 [Example 75, 5-tert-Butyl-N-([2-fluoro-4-[2-(4-methoxypyridin-2-yl)-3H-imidazo[4,5-b]pyridin-7-yl]phenyl]methyl)-1,2,4-oxadiazole-3-carboxamide] | < 100 | < 100 | 100 to 1000 |
| Cn1cc(-c2nc3c(-c4cccc(NC(=O)c5ccc(C6CC6)nc5)c4CO)ccnc3[nH]2)cn1 [Example 49, 6-Cyclopropyl-N-[2-(hydroxymethyl)-3-[2-(1-methyl-1H-pyrazol-4-yl)-3H-imidazo[4,5-b]pyridin-7-yl]phenyl]pyridine-3-carboxamide] | < 100 | < 100 | 100 to 1000 |
| COc1ccc(-c2nc3c(-c4ccc(CN5CCOc6cc(C7CC7)cc(F)c6C5=O)c(F)c4)ccnc3[nH]2)nc1 [Example 40, 8-Cyclopropyl-6-fluoro-4-([2-fluoro-4-[2-(5-methoxypyridin-2-yl)-3H-imidazo[4,5-b]pyridin-7-yl]phenyl]methyl)-2,3,4,5-tetrahydro-1,4-benzoxazepin-5-one] | < 100 | < 100 | 100 to 1000 |
| Cn1cc(-c2nc3c(-c4cccc(NC(=O)c5cc6c(s5)CCCC6)c4CO)ccnc3[nH]2)cn1 [Example 50, N-[2-(hydroxymethyl)-3-[2-(1-methyl-1H-pyrazol-4-yl)-3H-imidazo[4,5-b]pyridin-7-yl]phenyl]-4,5,6,7-tetrahydro-1-benzothiophene-2-carboxamide] | < 100 | < 100 | 100 to 1000 |
| CC(C)(C)c1nc(C(=O)NCc2ccc(-c3ccnc4[nH]c(-c5ccc(N6CCCCC6)cn5)nc34)cc2F)no1 [Example 83, 5-tert-Butyl-N-[(2-fluoro-4-[2-[5-(piperidin-1-yl)pyridin-2-yl]-3H-imidazo[4,5-b]pyridin-7-yl]phenyl)methyl]-1,2,4-oxadiazole-3-carboxamide] | < 100 | < 100 | < 100 |
| Cn1cc(-c2nc3c(-c4cc(F)cc(N5CCOc6cc(C7CC7)cc(F)c6C5=O)c4CO)ccnc3[nH]2)cn1 [Example 37, 8-Cyclopropyl-6-fluoro-4-[5-fluoro-2-(hydroxymethyl)-3-[2-(1-methyl-1H-pyrazol-4-yl)-3H-imidazo [4,5-b]pyridin-7-yl]phenyl]-2,3,4,5-tetrahydro-1,4-benzoxazepin-5-one] | < 100 | < 100 | 100 to 1000 |
| CN1CCN(c2ccc(-c3nc4c(-c5ccc(CNC(=O)c6noc(C(C)(C)C)n6)c(F)c5)ccnc4[nH]3)nc2)CC1 [Example 79, 5-tert-Butyl-N-[(2-fluoro-4-[2-[5-(4-methylpiperazin-1-yl)pyridin-2-yl]-3H-imidazo[4,5-b]pyridin-7-yl]phenyl)methyl]-1,2,4-oxadiazole-3-carboxamide] | < 100 | < 100 | < 100 |

Now from value to compound, other results behind:

| IC50 [2] [nM] | IC50 (full-length human BTK) [nM] | SMILES | IC50 [1] [nM] |
| --- | --- | --- | --- |
| < 100 | < 100 | Cn1cc(-c2nc3c(-c4ccc(CNC(=O)c5nnc(C(C)(C)C)o5)c(F)c4)ccnc3[nH]2)cn1 [Example 111, 5-tert-Butyl-[1,3,4]oxadiazole-2-carboxylic acid 2-fluoro-4-[2-(1-methyl-1H-pyrazol-4-yl)-3H-imidazo[4,5-b]pyridin-7-yl]-benzylamide] | 100 to 1000 |
| < 100 | < 100 | Cn1cc(-c2nc3c(-c4ccc(CNC(=O)c5cc(C(C)(C)C)on5)c(F)c4)ccnc3[nH]2)cn1 [Example 67, 5-tert-Butyl-N-([2-fluoro-4-[2-(1-methyl-1H-pyrazol-4-yl)-3H-imidazo[4,5-b]pyridin-7-yl]phenyl]methyl)-1,2-oxazole-3-carboxamide] | < 100 |
| < 100 | < 100 | Cc1cc(-c2ccnc3[nH]c(-c4cnn(C)c4)nc23)ccc1CNC(=O)c1nnc(C(C)(C)C)o1 [Example 103, 5-tert-Butyl-[1,3,4]oxadiazole-2-carboxylic acid 2-methyl-4-[2-(1-methyl-1H-pyrazol-4-yl)-3H-imidazo[4,5-b]pyridin-7-yl]-benzylamide] | < 100 |
| 1000 to 5000 | < 100 | Cn1cc(-c2nc3c(-c4ccc(CNC(=O)c5nnc(C(C)(C)C)o5)cc4)ccnc3[nH]2)cn1 [Example 109, 5-tert-Butyl-[1,3,4]oxadiazole-2-carboxylic acid 4-[2-(1-methyl-1H-pyrazol-4-yl)-3H-imidazo[4,5-b]pyridin-7-yl]-benzylamide] | 1000 to 5000 |
| < 100 | < 100 | Cn1cc(-c2nc3c(-c4ccc(C(C)(C)NC(=O)c5nnc(C(C)(C)C)o5)c(F)c4)ccnc3[nH]2)cn1 [Example 104, 5-tert-Butyl-[1,3,4]oxadiazole-2-carboxylic acid (1-{2-fluoro-4-[2-(1-methyl-1H-pyrazol-4-yl)-3H-imidazo[4,5-b]pyridin-7-yl]-phenyl}-1-methyl-ethyl)-amide] | 1000 to 5000 |
| < 100 | < 100 | Cc1cc(CNC(=O)c2noc(C(C)(C)C)n2)c(F)cc1-c1ccnc2[nH]c(-c3cnn(C)c3)nc12 [Example 77, 5-tert-butyl-N-([2-fluoro-5-methyl-4-[2-(1-methyl-1H-pyrazol-4-yl)-3H-imidazo[4,5-b]pyridin-7-yl]phenyl]methyl)-1,2,4-oxadiazole-3-carboxamide] | 1000 to 5000 |
| < 100 | < 100 | CN(C)c1ccc(-c2nc3c(-c4ccc(CNC(=O)c5nc(C(C)(C)C)no5)c(F)c4)ccnc3[nH]2)nc1 [Example 148, 3-(tert-butyl)-N-(4-(2-(5-(dimethylamino)pyridin-2-yl)-3H-imidazo[4,5-b]pyridin-7-yl)-2-fluorobenzyl)-1,2,4-oxadiazole-5-carboxamide] | < 100 |
| < 100 | < 100 | Cn1cc(-c2nc3c(-c4ccc(CNC(=O)c5ccc(C6CC6)nc5)c(F)c4)ccnc3[nH]2)cn1 [Example 56, 6-Cyclopropyl-N-([2-fluoro-4-[2-(1-methyl-1H-pyrazol-4-yl)-3H-imidazo[4,5-b]pyridin-7-yl]phenyl]methyl)pyridine-3-carboxamide] | 1000 to 5000 |
| < 100 | < 100 | Cn1cc(-c2nc3c(-c4ccc(CNC(=O)c5nc(C(C)(C)C)no5)cc4CO)ccnc3[nH]2)cn1 [Example 105, 3-tert-Butyl-[1,2,4]oxadiazole-5-carboxylic acid 3-hydroxymethyl-4-[2-(1-methyl-1H-pyrazol-4-yl)-3H-imidazo[4,5-b]pyridin-7-yl]-benzylamide] | 1000 to 5000 |
| < 100 | < 100 | CC(C)(C)c1nnc(C(=O)NCc2ccc(-c3ccnc4[nH]c(C5=CCNCC5)nc34)cc2F)o1 [Example 140, 5-tert-Butyl-[1,3,4]oxadiazole-2-carboxylic acid 2-fluoro-4-[2-(1,2,3,6-tetrahydro-pyridin-4-yl)-3H-imidazo[4,5-b]pyridin-7-yl]-benzylamide] | 1000 to 5000 |
| < 100 | < 100 | CN(C)c1nc(C(=O)NCc2ccc(-c3ccnc4[nH]c(-c5cnn(C)c5)nc34)cc2F)no1 [Example 57, 5-(Dimethylamino)-N-(2-fluoro-4-(2-(1-methyl-1H-pyrazol-4-yl)-3H-imidazo[4,5-b]pyridin-7-yl)benzyl)-1,2,4-oxadiazole-3-carboxamide 2,2,2-trifluoroacetate] | 1000 to 5000 |

From patent publication US11098041B2 (Merck Patent GmbH, priority 2014, dated 2021)
